Laboratory results from PubChem BioAssay (NCI).
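Five concentrations, 48 hours, 96-well plates. GI50 = concentration required for 50% inhibition of growth. The concentration for full growth arrest is given as TGI.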

Assays:
Assay in all cases: NCI anticancer screen, dose series, 48 h
EKVX NSCLC = tested on: EKVX NSCLC
LOX IMVI melanoma = tested on: LOX IMVI melanoma
COLO 205 colon = tested on: COLO 205 colon
SW-620 colon = tested on: SW-620 colon
U251 CNS = tested on: U251 CNS
SNB-19 CNS = tested on: SNB-19 CNS
NCI-H226 lung = tested on: NCI-H226 lung
OVCAR-8 ovarian = tested on: OVCAR-8 ovarian
HCT-116 colon = tested on: HCT-116 colon
SK-OV-3 ovarian = tested on: SK-OV-3 ovarian

Row | SMILES | TGI (EKVX NSCLC) | TGI (LOX IMVI melanoma) | TGI (COLO 205 colon) | TGI (SW-620 colon) | TGI (U251 CNS) | TGI (SNB-19 CNS) | TGI (NCI-H226 lung) | TGI (OVCAR-8 ovarian) | TGI (HCT-116 colon) | GI50 (EKVX NSCLC) | GI50 (LOX IMVI melanoma) | GI50 (SK-OV-3 ovarian) | TGI (SK-OV-3 ovarian) | GI50 (COLO 205 colon) | GI50 (SW-620 colon) | GI50 (U251 CNS) | GI50 (SNB-19 CNS) | GI50 (NCI-H226 lung) | GI50 (OVCAR-8 ovarian)
1 | Cc1cc(NS(=O)(=O)c2ccc(Nc3c4ccccc4nc4c(C(=O)NCCN(C)C)ccc(Cl)c34)cc2)no1 | 21.2 µM | 10.9 µM | 14.9 µM | 15.5 µM | 13.6 µM | 9.68 µM | 4.57 µM | 14 µM | 15.5 µM |  |  |  |  |  |  |  |  |  | 
2 | COC(=O)C(C)N1C(=O)c2ccccc2I1OC(C)=O (stereo not given) | > 100 µM | 34.8 µM | 35 µM | 29.5 µM | > 100 µM | > 100 µM | > 100 µM | > 100 µM |  | > 100 µM | 16.1 µM | > 100 µM | > 100 µM | 14.4 µM | 15.5 µM | 34.8 µM | > 100 µM | > 100 µM | > 100 µM
3 | COc1cc(N=Nc2cccc(S(=O)(=O)O)c2)c(C)cc1N=Nc1ccc(/C=C/c2ccc(N=[N+]([O-])c3ccc(/C=C/c4ccc(N=Nc5cc(C)c(N=Nc6cccc(S(=O)(=O)O)c6)cc5OC)cc4)c(S(=O)(=O)O)c3)cc2S(=O)(=O)O)cc1 | > 100 µM | > 100 µM | > 100 µM | > 100 µM | > 100 µM | > 100 µM | > 100 µM | > 100 µM | > 100 µM |  |  |  | > 100 µM |  |  |  |  |  | 
4 | O=CNc1cccc2c3c([nH]c12)CCCCCC3 | > 100 µM | > 100 µM | > 100 µM | > 100 µM | > 100 µM | > 100 µM | > 100 µM | > 100 µM | > 100 µM |  |  |  | > 100 µM |  |  |  |  |  | 
5 | CCOC(=O)C1C(c2cc(OC)c(O)c(OC)c2)c2cc3c(cc2OC1(C)O)OCO3 (stereo not given) | > 100 µM | > 100 µM | > 100 µM | > 100 µM | > 100 µM | > 100 µM |  | > 100 µM | > 100 µM |  |  |  | > 100 µM |  |  |  |  |  | 
6 | CC(C)(C)OC(=O)NC(Cc1ccccc1)C(=O)N[C@H]1c2ccsc2/C(=N/O)[C@H]1O (stereo not given in full) | > 100 µM | > 100 µM | > 100 µM | > 100 µM | > 100 µM | > 100 µM | > 100 µM | > 100 µM | > 100 µM |  |  |  | > 100 µM |  |  |  |  |  | 
7 | C=C1C(=O)O[C@H]2C1[C@H](OC(=O)/C(C)=C\COC(C)=O)C[C@]1(CO1)[C@@H]1[C@H](O)[C@H]3O[C@@]3(C)[C@@H]12 (stereo not given in full) | 57.3 µM | 37.2 µM | 21.9 µM | 30.8 µM | 44.7 µM | > 100 µM | 78.1 µM | 99.5 µM | 26.5 µM |  |  |  | > 100 µM |  |  |  |  |  | 
8 | COc1ccc(C(=O)Cc2cc(OC)ccc2OC)cc1 | > 100 µM | > 100 µM | > 100 µM | > 100 µM | > 100 µM | > 100 µM | > 100 µM | > 100 µM | > 100 µM |  |  |  | > 100 µM |  |  |  |  |  | 
9 | CC(C)=CCN(N=O)c1ncnc2nc[nH]c12 | > 100 µM | > 100 µM | > 100 µM | > 100 µM |  | > 100 µM | > 100 µM | > 100 µM | > 100 µM |  |  |  | > 100 µM |  |  |  |  |  | 
